According to paper PMC12736535, “Generation and Characterization of Novel Contilisant+Tubastatin a Multitarget Small Molecules Against Glioblastoma” (Pharmaceutics, 2025):
Read-outs that look alike come from different tables or passages of the source.

Tests used:
[1] = target: T1, recombinant hMAO-A (Homo sapiens, UniProt P21397); assay: MAO-A inhibition assay; assay type: biochemical
T1 sequence (P21397 1-527): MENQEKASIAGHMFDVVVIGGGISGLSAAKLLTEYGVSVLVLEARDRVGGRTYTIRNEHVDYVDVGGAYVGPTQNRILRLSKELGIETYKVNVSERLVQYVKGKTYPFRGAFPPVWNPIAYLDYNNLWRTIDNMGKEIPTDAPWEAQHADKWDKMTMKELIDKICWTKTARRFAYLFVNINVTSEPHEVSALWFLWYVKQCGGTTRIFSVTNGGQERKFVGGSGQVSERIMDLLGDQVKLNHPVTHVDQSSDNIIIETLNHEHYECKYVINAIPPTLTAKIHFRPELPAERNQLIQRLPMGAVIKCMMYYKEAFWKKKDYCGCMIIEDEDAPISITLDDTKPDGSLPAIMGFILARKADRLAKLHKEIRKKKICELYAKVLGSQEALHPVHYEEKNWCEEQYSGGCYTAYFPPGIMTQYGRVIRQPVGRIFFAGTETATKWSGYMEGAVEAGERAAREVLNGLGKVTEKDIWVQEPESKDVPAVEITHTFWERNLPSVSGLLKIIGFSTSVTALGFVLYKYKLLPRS
Procedure: For MAO inhibition studies, the enzyme solution (0.5 U/mL recombinant hMAO-A or 1.5 U/mL recombinant hMAO-B) was incubated with an inhibitor solution containing 10 µM of the compounds for 30 min at 37 °C. Next, horseradish peroxidase (200 U/mL), Ampliflu Red (20 mM) and tyramine hydrochloride (100 mM) (Sigma-Aldrich) were added, and absorbance was measured at 570 nm every 5 min for 30 min. The percentage of inhibition was calculated from the absorbance values.

[2] = tested on: U87 glioblastoma cells; assay: MTT cell viability, U87; assay type: cell-based; settings: Homo sapiens, 72 h, read-out: IC50 U87 (GBM)
Procedure: (§1) U87-MG, U251-MG and NCI-H1299 cells were purchased from ATCC, while MKN45 was obtained from the Leibniz Institute DSMZ-German Collection of Microorganisms and Cell Cultures and the RWP1 cell line was kindly provided by Dr. Francisco Real. Cells were cultured in DMEM or RPMI (Gibco, Waltham, MA, USA) supplemented with 10% FBS, 100 U/mL penicillin and streptomycin and 2 mM L-Glutamine. Patient-derived glioma neural stem cells (GNS166 and GNS179) were kindly provided by Dr. Steve Pollard. These cells were cultured in adhesion plates treated with laminin A in DMEM/F12 media (Gibco) supplemented with N2 (Gibco), B27 (Gibco), D-(+)-Glucose solution 45% (Sigma-Aldrich, Burlington, MA, USA), basic Fibroblast Growth Factor (Gibco) and epidermal growth factor (Sigma-Aldrich). Normal human astrocytes (NHAs) were purchased from ScienCell and cultured using an astrocyte medium kit (ScienCell, San Diego, CA, USA) supplemented with FBS and Astrocyte Growth Supplement (AGS). All cells were maintained at standard conditions of 37 °C, 95% humidity, 21% O2 and 5% CO2, and cultures were regularly tested for Mycoplasma.
(§2) Cells were seeded in 96-well plates at a density of 1.5 × 10^3 or 5 × 10^3 cells/well (conventional cell lines or GNS and NHAs, respectively) and incubated overnight. Next, cells were treated with increasing concentrations of the compounds, and after 72 h, they were incubated for 3.5 h with MTT. Then, absorbance at 570 nm was measured. GraphPad Prism software version 10.4.1 was used to calculate the IC50 values.

[3] = tested on: GNS166 cells; assay: RNA-seq; assay type: cell-based, human; settings: 5 µM
Source text: For transcriptomic analysis, total RNA was extracted and samples were sent to BGI Tech Solutions. […] Genes presenting a fold-change value ≥4 or ≤−4 and an FDR-adjusted p-value < 0.01 were defined as differentially expressed and used to perform downstream enrichment studies.

[4] = target: AChE (Homo sapiens, UniProt P22303); assay: AChE inhibition, Ellman's colorimetric method; assay type: biochemical; settings: read-out: ChE inhibition AChE %
Procedure: (§3) The inhibitory capacity of the compounds on ChEs was assessed using Ellman’s colorimetric method. Briefly, an inhibitor solution containing 10 µM of the MSMs and 0.3 mM DTNB was incubated for 20 min with the enzyme solution ([…]) at 37 °C. […] Inhibition percentages were calculated from these values. […] Further, enzyme kinetics were studied using different substrate and inhibitor concentrations. Results were represented in a Lineweaver–Burk plot using GraphPad Prism, and the constant of inhibition (Ki) was estimated from the point at which the line cuts the x-axis in the secondary plot.

[5] = tested on: H1299 lung cancer cells; assay: MTT cell viability, H1299; assay type: cell-based, human
Procedure: as §1, §2

[6] = tested on: MKN45 gastric cancer cells; assay: MTT cell viability, MKN45; assay type: cell-based; settings: Homo sapiens, MKN-45, 72 h
Procedure: as §1
(§4) Cells were seeded in 96-well plates at a density of 1.5 × 10^3 or 5 × 10^3 cells/well (conventional cell lines or GNS and NHAs, respectively) and incubated overnight. […] Then, absorbance at 570 nm was measured. […]

[7] = tested on: GNS166 patient-derived glioma stem cells; assay: MTT cell viability, GNS166; assay type: cell-based; settings: Homo sapiens, 72 h, read-out: IC50 GNS166 (GBM)
Procedure: as §1, §4

[8] = target: T2, BChE (Homo sapiens, UniProt P06276); assay: BChE inhibition, Ellman's colorimetric method; assay type: biochemical; settings: read-out: ChE inhibition BChE %
[9] = tested on: NHA primary human astrocytes; assay: MTT cell viability, NHA; assay type: cell-based; settings: Astrocyte, 72 h, non-tumor cells
Procedure: as §1, §4

[10] = In vivo toxicity, body weight; design: species or system athymic nude-Foxn1nu mice; settings: intraperitoneal, 3 days per week
[11] = target: T2, BChE; assay: BChE inhibition, Ellman's colorimetric method; assay type: biochemical; settings: for inhibition at 10 µM: read-out: ChE inhibition BChE %
Procedure: as §3

[12] = tested on: RWP1 pancreatic cancer cells; assay: MTT cell viability, RWP1; assay type: cell-based; settings: Homo sapiens, 72 h
Procedure: as §1, §4

[13] = target: T3, recombinant hMAO-B (Homo sapiens, UniProt P27338); assay: MAO-B inhibition assay; assay type: biochemical; settings: for MAO inhibition MAO-B % / inhibition at 10 µM: 10 μM
T3 sequence (P27338 1-520): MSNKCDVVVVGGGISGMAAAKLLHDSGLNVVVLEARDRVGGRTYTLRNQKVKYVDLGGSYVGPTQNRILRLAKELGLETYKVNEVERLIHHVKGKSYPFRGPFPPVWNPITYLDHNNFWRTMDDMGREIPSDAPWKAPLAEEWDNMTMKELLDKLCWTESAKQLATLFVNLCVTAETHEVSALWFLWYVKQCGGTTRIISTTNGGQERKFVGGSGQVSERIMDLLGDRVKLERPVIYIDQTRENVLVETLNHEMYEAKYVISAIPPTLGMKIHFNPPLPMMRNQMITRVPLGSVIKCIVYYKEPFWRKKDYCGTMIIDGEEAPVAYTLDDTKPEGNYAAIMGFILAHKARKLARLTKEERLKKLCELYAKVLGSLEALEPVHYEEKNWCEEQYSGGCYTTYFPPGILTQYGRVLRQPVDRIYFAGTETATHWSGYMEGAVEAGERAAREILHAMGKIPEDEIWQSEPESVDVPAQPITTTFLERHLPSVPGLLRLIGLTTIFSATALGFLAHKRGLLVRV
Procedure: […] Next, horseradish peroxidase (200 U/mL), Ampliflu Red (20 mM) and tyramine hydrochloride (100 mM) (Sigma-Aldrich) were added, and absorbance was measured at 570 nm every 5 min for 30 min. The percentage of inhibition was calculated from the absorbance values.

[14] = tested on: GNS166, GNS179, U87 and U251 cells; assay: Immunofluorescence of Ki67, p-H3 and cleaved caspase-3; assay type: cell-based, human; settings: 1, 3 and 5 μM, 48 h; for proliferative markers (Ki67- and p-H3-positive cells): all glioma cell types
Procedure: For immunofluorescence assays, cells were seeded at a density of 2 × 10^4 cells/well in 8-well immunofluorescence chambers (LabTek Thermo, Waltham, MA, USA) and incubated overnight. Then, cells were treated for 48 h and fixed with 4% PFA. Primary antibodies against phospho-histone H3 (p-H3) (Abcam), cleaved caspase-3 (Casp3) (R&D Systems, Minneapolis, MN, USA) and Ki67 (Abcam) and secondary antibodies Alexa Fluor anti-mouse and anti-rabbit (Invitrogen, Carlsbad, CA, USA) were used. Nuclei were stained with DAPI (Sigma-Aldrich). Pictures were taken with an Axio Observer 7 epifluorescence microscope, and Qupath version 0.6.0 was used for quantifications. Percentages of Ki67-, p-H3- and Casp3-positive cells were calculated, taking into account the number of nuclei.

[15] = tested on: HDAC6; assay: Western blot of acetylated α-tubulin (HDAC6 target); assay type: cell-based, human; settings: GNS166 and U87 cells
Procedure: Sodium dodecyl sulfate–polyacrylamide gel electrophoresis was performed. Primary antibodies against HDAC1 (Abcam, Cambridge, UK) and HDAC6 (Cell Signaling, Dancers, MA, USA) and their main targets, acetylated H3 (Cell Signaling) and acetylated α-tubulin (Abcam), were used; acetylated lysine (Cell Signaling) and β-actin (Sigma-Aldrich) were used as endogenous controls. Secondary antibodies conjugated to horseradish peroxidase were anti-rabbit or anti-mouse (Cell Signaling). Proteins were detected using the iBright imaging system and NOVEX ECL Chemi Substrate or SuperSignal West Femto Maximum Sensitivity Substrate (ThermoFisher, Waltham, MA, USA).

[16] = tested on: U251 glioma cells; assay: MTT cell viability, U251; assay type: cell-based; settings: Homo sapiens, U-251, 72 h, read-out: IC50 U251 (GBM)
Procedure: as §1, §4

[17] = tested on: U87 subcutaneous tumors; assay: Subcutaneous U87 tumor growth and tumor immunohistochemistry; assay type: in vivo, athymic nude-Foxn1nu mice; settings: 50 mg/kg i.p.; for final tumor volume: 3 days per week for 4 weeks, control ~750; for decrease in the number of Ki67-positive cells (IHC): resected tumors
Procedure: For carcinogenesis studies, subcutaneous tumor growth experiments were performed via the injection of 5 × 10^5 cells into two bottom flanks of athymic nude-Foxn1^nu mice. Once tumors reached a size of 25–50 mm^3, mice were sorted into different treatment groups based on their gender and tumor size. An external caliper was used for tumor size measurement, and the tumor volume was estimated using the formula V = L·W^2·0.5 (where L is tumor length and W is tumor width). […] Sample size was calculated, taking into account that control groups could have an average size of 700 mm^3 and we wanted to detect a difference of […]. For the cytotoxic experiment, 8 controls and 8 treated animals were used, while for the efficacy experiment 12 control animals and 8 treated animals were used.
Subcutaneous tumors were extracted, fixed with 4% formaldehyde for 48 h and embedded in paraffin. Tumor sections were obtained and stainings for Ki67 (Ab16667, Abcam), acetyl H3 (9649, Cell Signaling) and acetylated α-tubulin (ab179484, Abcam) were performed. A ZEISS Axioscan 7 slide scanner was used to capture images of the stainings, and analyses were performed using Qupath.

[18] = read-out: MAO inhibition MAO-A %
[19] = increasing concentrations of inhibitor

T2 sequence (P06276 29-602, species assumed): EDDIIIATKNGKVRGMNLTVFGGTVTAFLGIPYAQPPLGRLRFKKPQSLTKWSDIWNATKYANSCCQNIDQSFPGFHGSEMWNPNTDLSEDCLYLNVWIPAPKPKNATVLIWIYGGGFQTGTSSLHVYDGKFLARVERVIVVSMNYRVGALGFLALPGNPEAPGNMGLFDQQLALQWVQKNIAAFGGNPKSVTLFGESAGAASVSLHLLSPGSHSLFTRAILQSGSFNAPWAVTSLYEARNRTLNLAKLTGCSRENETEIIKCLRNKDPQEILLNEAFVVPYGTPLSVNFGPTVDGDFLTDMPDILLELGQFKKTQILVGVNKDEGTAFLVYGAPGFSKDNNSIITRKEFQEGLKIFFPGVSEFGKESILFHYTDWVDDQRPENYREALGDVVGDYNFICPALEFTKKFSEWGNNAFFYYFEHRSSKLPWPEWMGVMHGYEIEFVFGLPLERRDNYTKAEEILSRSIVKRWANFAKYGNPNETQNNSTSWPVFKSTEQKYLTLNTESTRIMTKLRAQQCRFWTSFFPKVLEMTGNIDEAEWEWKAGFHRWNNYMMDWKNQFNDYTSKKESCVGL
Sequence of AChE (P22303 32-614): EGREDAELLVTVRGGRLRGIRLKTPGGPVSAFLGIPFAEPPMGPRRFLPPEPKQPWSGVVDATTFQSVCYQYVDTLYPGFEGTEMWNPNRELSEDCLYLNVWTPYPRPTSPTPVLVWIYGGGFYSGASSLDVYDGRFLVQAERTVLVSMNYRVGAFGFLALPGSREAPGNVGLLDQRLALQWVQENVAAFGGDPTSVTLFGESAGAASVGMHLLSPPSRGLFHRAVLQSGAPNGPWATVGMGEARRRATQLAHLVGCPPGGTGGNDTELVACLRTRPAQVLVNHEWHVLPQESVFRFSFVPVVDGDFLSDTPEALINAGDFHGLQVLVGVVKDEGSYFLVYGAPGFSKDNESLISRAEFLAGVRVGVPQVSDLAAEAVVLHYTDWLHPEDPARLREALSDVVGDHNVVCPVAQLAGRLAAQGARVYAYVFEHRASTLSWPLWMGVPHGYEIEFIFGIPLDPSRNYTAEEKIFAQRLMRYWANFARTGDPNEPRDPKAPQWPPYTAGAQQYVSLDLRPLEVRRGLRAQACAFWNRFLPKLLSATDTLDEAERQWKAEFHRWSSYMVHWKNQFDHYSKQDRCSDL

C#CCN(C)CCCOc1ccc(Cl)cc1Cl [Clorgiline, reference compound]
inhibition at 1 µM [1, 18]: 100%
inhibition at 10 µM [1, 18]: 98%

CCCN(CCC)NC(=O)c1ccc(S(=O)(=O)n2ccc3cc(OC)ccc32)cc1 [FRB21]
IC50 [2]: > 100 µM

CCCNNC(=O)c1ccc(S(=O)(=O)n2ccc3cc(OC)ccc32)cc1 [FRB24]
IC50 [2]: 7.1 µM

CCCNNC(=O)c1ccc(S(=O)(=O)n2ccc3cc(OCCCN4CCCCC4)ccc32)cc1 [FRB44]
FC of CDKN1A (RNA-seq) [3]: 3.53 fold
FC of MKI67 (RNA-seq) [3]: 0.09 fold
inhibition at 10 µM [4]: 24%
IC50 ([5]; Homo sapiens, NCI-H1299, 72 h): 11 µM
IC50 [6]: 4.1 µM
IC50 [7]: 15 µM
inhibition at 1 µM ([8]; 1 μM): 20%
IC50 [2]: ~1.5 µM
IC50 [9]: 41.4 µM
body weight vs control animals [10]: no statistically significant differences
Type of inhibition [11]: Mixed
ChE inhibition BChE % ([11]; 10 μM): 70%
inhibition at 10 µM ([11]; 10 μM): 71%
Type of inhibition ([11]; BChE, Lineweaver-Burk plot): mixed inhibition
Ki ([11]; BChE, secondary plot of Lineweaver-Burk slopes): 1.36 µM
IC50 [11, 19]: 8.24 µM
IC50 [12]: 0.7 µM
inhibition at 1 µM [13]: 18%
MAO inhibition MAO-B % [13]: 70%
inhibition at 10 µM [13]: 69%
IC50 [13, 19]: 3.16 µM
proliferative markers (Ki67- and p-H3-positive cells) [14]: clear reductions
levels of acetyl-α-tubulin [15]: increased
IC50 [16]: 3.1 µM
final tumor weight, lower compared to controls [17]: 62.5%
final tumor volume [17]: ~ 325 mm^3
decrease in the number of Ki67-positive cells (IHC) [17]: around 30%

C#CCN1CCN(CCCOc2ccc3c(ccn3S(=O)(=O)c3ccc(C(=O)NNCCC)cc3)c2)CC1 [FRB56]
IC50 [1, 19]: 1.68 µM
FC of CDKN1A (RNA-seq) [3]: 3.12 fold
FC of MKI67 (RNA-seq) [3]: 0.06 fold
inhibition at 10 µM [4]: 13%
IC50 ([5]; 72 h): < 5 µM
IC50 ([5]; Homo sapiens, NCI-H1299, 72 h): 4.9 µM
IC50 [7]: 13.7 µM
inhibition at 1 µM ([8]; 1 μM): 10%
IC50 [2]: ~1.5 µM
IC50 [9]: 26.6 µM
body weight vs control animals [10]: no statistically significant differences
inhibition at 10 µM ([11]; 10 μM): 15%
inhibition at 1 µM [13]: 83%
MAO inhibition MAO-B % [13]: 90%
inhibition at 10 µM [13]: 89%
proliferative markers (Ki67- and p-H3-positive cells) [14]: clear reductions
levels of acetyl-α-tubulin [15]: increased
IC50 [16]: 12 µM
final tumor weight, lower compared to controls [17]: 61.4%
final tumor volume [17]: ~ 280 mm^3
decrease in the number of Ki67-positive cells (IHC) [17]: around 30%

CCN(C)C(=O)Oc1cccc([C@H](C)N(C)C)c1 [Rivastigmine, reference compound]
inhibition at 1 µM [8]: 100%
inhibition at 10 µM [11]: 100%

CN1CCc2c(c3ccccc3n2Cc2ccc(C(=O)NO)cc2)C1 [Tubastatin A]
cleaved caspase-3-positive cells [14]: slightly increased
levels of acetyl-α-tubulin [15]: higher levels of acetylated α-tubulin than the FRBs
